How the values were obtained:
Assay type in all cases: cell-based
HIV-1Ba-L = assay: HIV-1 infection of monocyte-derived macrophages, p24-core antigen ELISA; conditions: Human immunodeficiency virus 1, Macrophage, MDM infected with HIV-1Ba-L, multiplicity of infection 0.02
Experimental: Cells are washed twice and monocytes are purified by countercurrent centrifugal elutriation. Cells are >98% monocytes by criteria of cell morphology on May-Grunwald-Giemsa-stained cytosmears and by nonspecific esterase staining using alpha-naphtylacetate (Sigma Chemical Co., St. Louis, MO) as substrate.
(§1) HIV-1 strain Ba-L is grown to high titer in MDM. The 50% tissue culture infectious dose (TCID50) of the virus stock is determined by endpoint dilution with serial fourfold dilutions in a 96-well microtiter plate on MDM. HIV-1 strain AT is grown to high titer in PHA-stimulated PBMC. The TCID50 of the virus stock is determined by endpoint dilution with serial fourfold dilutions in a 96-well microtiter plate on PBMC.
PBMC were washed twice and monocytes were purified by countercurrent centrifugal elutriation. […] Concentrations above 0.3 µM APHS inhibit p24 production. 30 µM APHS inhibits HIV-1 replication by 88%.

[1] = tested on: Monocyte-derived macrophages (MDM); assay: MTT cytotoxicity assay in monocyte-derived macrophages; conditions: 4 days incubation in different concentrations
Experimental: Cell viability is assessed by the MTT assay. In short, cells are incubated with MTT 3-(4,5-dimethylthiazol-2-yl)-2,5-diphenyltetrazollumbromide (Sigma) for 2 hours at 37 °C. During this time viable cells convert MTT into […] formazan dyes. Afterwards crystals are solubilised with a solution containing isopropanol. The OD of the supernatant is measured at 550 nm.
Fig 3 - Monocyte-derived macrophages (MDM) were obtained like described in legend of Fig.2. […] After a 4 days incubation period cellular viability was assessed by MTT cytotoxicity assay where viable cells convert MTT into a colored formazan dye that can be measured spectrophotometrically.

HIV-1 = HIV-1 infection of PHA-stimulated PBMC, p24-core antigen ELISA (strain not specified in the result); conditions: Human immunodeficiency virus 1; PHA-stimulated PBMC infected with HIV-1AT or HIV-1BaL; p24 after 4 and 5 days; read-out: Concentrations that inhibit HIV-1 production
Experimental: as §1

HIV-1BaL = HIV-1BaL infection of PHA-stimulated PBMC, p24-core antigen ELISA
Experimental: as §1

PBMC = assay: WST-1 cytotoxicity assay in PBMC; conditions: 5 days incubation
Experimental: Cell viability is assessed with WST-1 assay. Cells are incubated with the tetrazolium salt WST-1 (4-[3-(4-lodophenyl)-2-(4-nitrophenyl)-2H-5-tetrazolio]-1,3-benzene disulfonate) for 2 hours at 37 °C. During this time viable cells convert WST-1 into water soluble formazan dyes. The OD of the supernatant is measured at 550 nm.
Fig 5 - PBMC were obtained and stimulated as described in legend of Fig. 4. […] After a 5 days incubation period cellular viability was assessed by WST-1 cytotoxicity assay where viable cells convert WST-1 into a coloured formazan dye that can be measured spectrophotometrically.

Structure (SMILES): CCCCC#CCSc1ccccc1OC(C)=O [APHS, o-(acetoxy-phenyl)hept-2-ynyl sulphide]
- inhibition at 30 µM (HIV-1Ba-L; 30 µM APHS, read-out: inhibits HIV-1 replication by): 88%
- minimal effective concentration (HIV-1Ba-L; supernatant after 4 and 5 days, read-out: Concentrations that inhibit p24 production): > 0.3 µM
- cytotoxicity (cellular viability, MTT) [1]: None of the tested concentrations of APHS was found to be cytotoxic
- minimal effective concentration (HIV-1): > 1 µM
- inhibition at 1 µM (HIV-1BaL; Human immunodeficiency virus 1, 1 µM APHS, when infectivity is lower (Fig 4c), read-out: inhibit HIV-1BaL production by): 50%
- inhibition at 30 µM (HIV-1BaL; Human immunodeficiency virus 1, 30 µM APHS, read-out: inhibit HIV-1BaL replication by): 100%
- Concentrations found to reduce viability (PBMC): ≥ 100 µM
